The source of these data is patent US4431655A, “2,4-Disubstituted-1,2,5-thiadiazol-3(2H)-one antimicrobials” (Merck & Co., Inc., priority 1982, dated 1984).

Data set [1] in a line: Ring stability to hydrolysis, UV absorption changes with time. The format is physicochemical. As to conditions: equal volumes methanol-aqueous phosphate buffer (pH 8); for remaining at 1 h: read-out: % Compound Remaining after 1 hr; for remaining at 16 h: read-out: % Compound Remaining after 16 hr; for remaining at 48 h: read-out: % Compound Remaining after 48 hr; for remaining at 165 h: read-out: % Compound Remaining after 165 hr; for remaining at 336 h: read-out: % Compound Remaining after 336 hr. How it is done:
Solutions of these compounds were prepared using equal volumes of methanol-aqueous phosphate buffer (pH 8), and decomposition by cleavage of the heterocyclic ring was monitored using ultraviolet absorption changes with time.

Data set [2] deals with Colletotrichum lagenarium MF 4800. The data set can be described thus: In vitro minimal inhibitory concentration in nutrient agar. The format is cell-based. As to conditions: Colletotrichum orbiculare, MF4800.
Data set [3] has as its system Botrytis cinerea MF 4803. Described as above. Particulars: MF4803. The format is cell-based.
For data set [4], the system named is Rhizoctonia solani MF 4579. The data set is described as above. The format is cell-based. Particulars: MF4579.
Data set [5] relates to Sclerotinia sclerotiorum MF 4739. Described as above. Particulars: MF4739. The format is cell-based.
Data set [6] has as its system Cercospora beticola MF 4571. The data set is described as above. The format is cell-based. As to conditions: MF4571.
In data set [7] the test system is Fusarium oxysporum MF 3413. The description is as above. The format is cell-based. Particulars: MF3413.
The test system of data set [8] is Cladosporium Fulvum MF 3238. The data set is described as above. The format is cell-based. As to conditions: Fulvia fulva.
Data set [9] has as its system Penicillium digitatum MF 4590. The description is as above. The format is cell-based. As to conditions: MF4590.
The subject of data set [10] is Helminthosporium maydis MF 4775. The description is as above. The class given is cell-based. Particulars: Bipolaris maydis, MF4775.
Data set [11] relates to Aspergillus niger MF 11. Described as above. The class given is cell-based. Particulars: MF11.
Data set [12] relates to Diaperthe phaseolorum MF 4668. Described as above. The class given is cell-based.
The test system of data set [13] is Thielaviopsis basicola MF 3147. Described as above. The format is cell-based. Particulars: Berkeleyomyces basicola, MF3147.
In data set [14] the test system is Helminthosporium oryzae MF 4806. The data set is described as above. As to conditions: Bipolaris oryzae, MF4806. The format is cell-based.
In data set [15] the test system is Monilia nigra MF 3084. The description is as above. The format is cell-based. As to conditions: Moniliella suaveolens, MF3084.
Data set [16] deals with Alternaria citri MF 2970. The data set is described as above. The format is cell-based. As to conditions: MF2970.
For data set [17], the system named is Verticillium dahliae MF 2416. Described as above. The format is cell-based. As to conditions: MF2416.
Data set [18] deals with Phytophthora cambivora MF 3753. The data set is described as above. The format is cell-based.

Converted amounts (≈) assume the structure as drawn.

Turning to `CCCc1nsn(Cc2ccccc2)c1=O`, in [1], the “% Compound Remaining after 0 hr” value stood at 100%; the amount remaining – broadly, the share of the starting amount still present when the sample was taken – at 1 h was 100%; the fraction remaining at 16 h is 100%; the amount remaining at 48 h amounted to 100%. Also, in data set [1], the amount remaining at 165 h stood at 90% and the share remaining at 336 h turned out to be 90%.
As for `O=c1cnsn1Cc1ccccc1`, in data set [1], the “% Compound Remaining after 0 hr” value is given as 100%, the share remaining at 1 h was 100%, the amount remaining at 16 h amounted to 96% and the share remaining at 48 h is 80%. In addition, in data set [1], the amount remaining at 165 h was 50% and the amount remaining at 336 h worked out at 26%.
`Cc1nsn(Cc2ccc(Cl)cc2)c1=O` [2-[(4-Chlorophenyl)methyl]-4-methyl-1,2,5-thiadiazol-3(2H)-one]: the MIC – broadly, the lowest concentration that inhibits growth of the organism – in [2] is 2 µg/mL (≈ 8.31 µM); in data set [3], 1 µg/mL (≈ 4.15 µM); in data set [4] it was 8 µg/mL (≈ 33.2 µM); in data set [5], 0.8 µg/mL (≈ 3.32 µM); in [6], 1 µg/mL (≈ 4.15 µM); in [7], 4 µg/mL (≈ 16.6 µM). The MIC worked out at 1 µg/mL (≈ 4.15 µM) in data set [8]; 4 µg/mL (≈ 16.6 µM) in data set [9]; 0.4 µg/mL (≈ 1.66 µM) in [10]; 4 µg/mL (≈ 16.6 µM) in data set [11]; 0.4 µg/mL (≈ 1.66 µM) in data set [12]; 4 µg/mL (≈ 16.6 µM) in data set [13]. Besides, the MIC was determined as 1 µg/mL (≈ 4.15 µM) in data set [14]; 2 µg/mL (≈ 8.31 µM) in data set [15]; 4 µg/mL (≈ 16.6 µM) in data set [16]; 4 µg/mL (≈ 16.6 µM) in data set [17]; 2 µg/mL (≈ 8.31 µM) in data set [18].
`CCCCCCn1snc(C)c1=O` [CH3, n-C6 H13, 2-n-Hexyl-4-methyl-1,2,5-thiadiazol-3(2H)-one]: in data set [1], the “% Compound Remaining after 0 hr” value turned out to be 100%, the fraction remaining at 1 h is 100%, the amount remaining at 16 h came out at 100% and the amount remaining at 48 h worked out at 100%. Moreover, in data set [1], the amount remaining at 165 h came out at 100% and the share remaining at 336 h came out at 99%.
`Cc1nsn(Cc2ccc(Cl)cc2)c1=O` [drawing 23]: in data set [1], the “% Compound Remaining after 0 hr” value is recorded as 100%, the fraction remaining at 1 h came out at 100%, the share remaining at 16 h was 100% and the amount remaining at 48 h amounted to 97%. In data set [1], the fraction remaining at 165 h is 93% and the share remaining at 336 h is 91%.
For the compound `O=c1c(Cl)nsn1Cc1ccccc1` [reference compound], in data set [1], the “% Compound Remaining after 0 hr” value is 100%, the fraction remaining at 1 h turned out to be 48%, the share remaining at 16 h stood at 6% and the share remaining at 48 h was 0%.
For the compound `O=c1c(Cl)nsn1Cc1ccc(Cl)cc1` [reference compound], in data set [1], the “% Compound Remaining after 0 hr” value was found to be 100%, the share remaining at 16 h was 0% and the share remaining at 48 h was 0%.
